Here are results for 7 compounds from publication PMC5733700 (Bioorganic & medicinal chemistry, 2017).

One data set addresses BRD2-BD2 (348–455) (Homo sapiens, UniProt P25440). Put plainly: Isothermal titration calorimetry. In kind it is binding. The following applies: 15 °C, no DMSO in buffer. In general terms: In ITC the heat of successive injections is recorded.
The next data set deals with BRD2-BD1 (74–194) (Homo sapiens, UniProt P25440). Put plainly: Isothermal titration calorimetry. It counts as binding. The note with it: 15 °C, no DMSO in buffer.
BRD2-BD1 (74–194), sequence (P25440 74-194): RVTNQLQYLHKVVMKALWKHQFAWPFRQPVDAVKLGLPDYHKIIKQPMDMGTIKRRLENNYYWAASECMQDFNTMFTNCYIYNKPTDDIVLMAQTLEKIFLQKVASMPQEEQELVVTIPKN
Another data set concerns BJ cells. Put plainly: Non-specific cytotoxicity, BJ control cell line. It counts as cell-based. The note with it: control immortalized fibroblast cell line; 3 days exposure.
The test system of the next data set is HEPG2 cells. Nature of the data set: Non-specific cytotoxicity, HEPG2 control cell line. It counts as cell-based. The note with it: control hepatocarcinoma cell line; 3 days exposure.
For the next data set, the system named is HEK293 cells. Put plainly: Non-specific cytotoxicity, HEK293 control cell line. The note with it: control embryonic kidney cell line; 3 days exposure. In kind it is cell-based.

The structures appear in SMILES notation.

BRD2-BD2 (348–455), sequence (P25440 348-455): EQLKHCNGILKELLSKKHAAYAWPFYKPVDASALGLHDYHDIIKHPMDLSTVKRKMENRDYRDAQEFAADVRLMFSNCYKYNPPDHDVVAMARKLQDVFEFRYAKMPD

In the case of `CC(=O)N1c2ccc(-c3cccs3)cc2[C@H](NC(=O)OC(C)C)C[C@@H]1C` [Compound 10, Isopropyl ((2S,4R)-1-acetyl-2-methyl-6-(thiophen-2-yl)-1,2,3,4-tetrahydroquinolin-4-yl)carbamate], on BRD2-BD2 (348–455), the “ITC ΔG, BRD2 BD2” value is -10.12 kcal/mol; the “ITC ΔH, BRD2 BD2” value was -7.18 kcal/mol; the “ITC −TΔS, BRD2 BD2” value was -2.94 kcal/mol. At BRD2-BD1 (74–194), the “ITC ΔG, BRD2 BD1” value is -9.52 kcal/mol; the “ITC ΔH, BRD2 BD1” value was -8.27 kcal/mol; the “ITC −TΔS, BRD2 BD1” value is -1.25 kcal/mol.

Take `CC(=O)N1c2ccc(-c3cc[nH]c3)cc2[C@H](NC(=O)OC(C)C)C[C@@H]1C` [Compound 14, Isopropyl ((2S,4R)-1-acetyl-2-methyl-6-(1H-pyrrol-3-yl)-1,2,3,4-tetrahydroquinolin-4-yl)carbamate]: at BRD2-BD2 (348–455), the “ITC ΔG, BRD2 BD2” value is -10.15 kcal/mol; the “ITC ΔH, BRD2 BD2” value is -7.01 kcal/mol; the “ITC −TΔS, BRD2 BD2” value was -3.32 kcal/mol. In addition, at BRD2-BD1 (74–194), the “ITC ΔG, BRD2 BD1” value is -9.28 kcal/mol; the “ITC ΔH, BRD2 BD1” value was -7.33 kcal/mol; the “ITC −TΔS, BRD2 BD1” value is -1.95 kcal/mol.

As for `CC(=O)N1c2ccc(-c3ccsc3)cc2[C@H](NC(=O)OC(C)C)C[C@@H]1C` [Compound 13, Isopropyl ((2S,4R)-1-acetyl-2-methyl-6-(thiophen-3-yl)-1,2,3,4-tetrahydroquinolin-4-yl)carbamate], at BRD2-BD2 (348–455), the “ITC ΔG, BRD2 BD2” value was -10.25 kcal/mol; the “ITC ΔH, BRD2 BD2” value is -6.92 kcal/mol; the “ITC −TΔS, BRD2 BD2” value is -3.33 kcal/mol. Moreover, on BRD2-BD1 (74–194), the “ITC ΔG, BRD2 BD1” value was -9.43 kcal/mol; the “ITC ΔH, BRD2 BD1” value is -7.69 kcal/mol; the “ITC −TΔS, BRD2 BD1” value is -1.74 kcal/mol.

`Cc1sc2c(c1C)C(c1ccc(Cl)cc1)=N[C@@H](CC(=O)OC(C)(C)C)c1nnc(C)n1-2` [Compound 1, (+)-JQ1, reference compound]: at BRD2-BD2 (348–455), the “ITC ΔH, BRD2 BD2” value is -1.47 kcal/mol and the “ITC −TΔS, BRD2 BD2” value is -7.83 kcal/mol. Further, on BRD2-BD1 (74–194), the “ITC ΔH, BRD2 BD1” value was -4.9 kcal/mol and the “ITC −TΔS, BRD2 BD1” value was -4.39 kcal/mol.

As for `CC(=O)N1c2ccc(-c3ccco3)cc2[C@H](NC(=O)OC(C)C)C[C@@H]1C` [Compound 9, Isopropyl ((2S,4R)-1-acetyl-6-(furan-2-yl)-2-methyl-1,2,3,4-tetrahydroquinolin-4-yl)carbamate], the “Cytotoxicity EC50, BJ” value with BJ cells was “did not exhibit cytotoxicity at the highest concentrations tested”. Moreover, the “Cytotoxicity EC50, HEPG2” value with HEPG2 cells was “did not exhibit cytotoxicity at the highest concentrations tested”. Besides, the “Cytotoxicity EC50, HEK293” value with HEK293 cells was “did not exhibit cytotoxicity at the highest concentrations tested”. On BRD2-BD1 (74–194), the “ITC ΔG, BRD2 BD1” value was -7.47 kcal/mol; the “ITC ΔH, BRD2 BD1” value was -7.27 kcal/mol; the “ITC −TΔS, BRD2 BD1” value was -0.2 kcal/mol.

Consider `CC(=O)N1c2ccc(-c3ccc[nH]3)cc2[C@H](NC(=O)OC(C)C)C[C@@H]1C` [Compound 11, Isopropyl ((2S,4R)-1-acetyl-2-methyl-6-(1H-pyrrol-2-yl)-1,2,3,4-tetrahydroquinolin-4-yl)carbamate], for which, on BRD2-BD2 (348–455), the “ITC ΔG, BRD2 BD2” value is -9.82 kcal/mol; the “ITC ΔH, BRD2 BD2” value was -6.89 kcal/mol; the “ITC −TΔS, BRD2 BD2” value was -2.92 kcal/mol. Moreover, at BRD2-BD1 (74–194), the “ITC ΔG, BRD2 BD1” value is -9.08 kcal/mol; the “ITC ΔH, BRD2 BD1” value was -6.9 kcal/mol; the “ITC −TΔS, BRD2 BD1” value is -2.18 kcal/mol.

For the compound `CC(=O)N1c2ccc(-c3ccoc3)cc2[C@H](NC(=O)OC(C)C)C[C@@H]1C` [Compound 12, Isopropyl ((2S,4R)-1-acetyl-6-(furan-3-yl)-2-methyl-1,2,3,4-tetrahydroquinolin-4-yl)carbamate], on BRD2-BD2 (348–455), the “ITC ΔG, BRD2 BD2” value is -8.61 kcal/mol; the “ITC ΔH, BRD2 BD2” value was -6.31 kcal/mol; the “ITC −TΔS, BRD2 BD2” value is -2.29 kcal/mol. Moreover, at BRD2-BD1 (74–194), the “ITC ΔG, BRD2 BD1” value was -8.96 kcal/mol; the “ITC ΔH, BRD2 BD1” value was -9.9 kcal/mol; the “ITC −TΔS, BRD2 BD1” value was 0.94 kcal/mol.
